Results taken from PubChem BioAssay AID330 (DTP/NCI, 2004).
Where “and” joins values, the source holds several entries; their conditions need not be identical. Equal values may be shown once. Toxic doses and inconclusive results are not listed.

System: P388 leukemia ip, CD2F1 mice, survival T/C
Assay: NCI In Vivo Anticancer Drug Screen. Data for tumor model P388 Leukemia (intraperitoneal) in CD2F1 (CDF1) mice
Settings: endpoint: median survival time, higher = longer survival
Method in brief: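 Mice carrying the transplanted tumor received test compound or vehicle. Survival was recorded in each group, and the value is the treated-group measurement divided by that of the vehicle-treated control group.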

[1] = dose: 100.0 mg/kg/injection, schedule: Q04DX003 (ip), vehicle: saline
[2] = dose: 200.0 mg/kg/injection, schedule: Q04DX003 (ip), vehicle: saline
[3] = dose: 400.0 mg/kg/injection, schedule: Q04DX003 (ip), vehicle: saline
[4] = dose: 60.0 mg/kg/injection, schedule: Q01DX005 (ip), vehicle: saline with Tween-80
[5] = dose: 120.0 mg/kg/injection, schedule: Q01DX005 (ip), vehicle: saline with Tween-80
[6] = dose: 240.0 mg/kg/injection, schedule: Q01DX005 (ip), vehicle: saline with Tween-80
[7] = dose: 50.0 mg/kg/injection, schedule: Q01DX009 (ip), vehicle: saline with Tween-80
[8] = dose: 100.0 mg/kg/injection, schedule: Q01DX009 (ip), vehicle: saline with Tween-80
[9] = dose: 200.0 mg/kg/injection, schedule: Q01DX009 (ip), vehicle: saline with Tween-80
[10] = dose: 50.0 mg/kg/injection, schedule: Q01DX009 (ip), vehicle: Klucel (hydroxypropylcellulose) (HPC)
[11] = dose: 100.0 mg/kg/injection, schedule: Q01DX009 (ip), vehicle: Klucel (hydroxypropylcellulose) (HPC)
[12] = dose: 100.0 mg/kg/injection, schedule: Q04DX003 (ip), vehicle: Klucel (hydroxypropylcellulose) (HPC)
[13] = dose: 200.0 mg/kg/injection, schedule: Q04DX003 (ip), vehicle: Klucel (hydroxypropylcellulose) (HPC)
[14] = dose: 400.0 mg/kg/injection, schedule: Q04DX003 (ip), vehicle: Klucel (hydroxypropylcellulose) (HPC)
[15] = dose: 50.0 mg/kg/injection, schedule: Q01DX009 (ip), vehicle: saline
[16] = dose: 50.0 mg/kg/injection, schedule: Q04DX003 (ip), vehicle: saline with Tween-80
[17] = dose: 100.0 mg/kg/injection, schedule: Q04DX003 (ip), vehicle: saline with Tween-80
[18] = dose: 50.0 mg/kg/injection, schedule: Q01DX005 (ip), vehicle: Klucel (hydroxypropylcellulose) (HPC)
[19] = dose: 100.0 mg/kg/injection, schedule: Q01DX005 (ip), vehicle: Klucel (hydroxypropylcellulose) (HPC)
[20] = dose: 200.0 mg/kg/injection, schedule: Q01DX005 (ip), vehicle: Klucel (hydroxypropylcellulose) (HPC)

Cn1c(=O)c2c(nc(Br)n2CC(=O)c2ccc([N+](=O)[O-])cc2)n(C)c1=O
T/C [1]: 95 % of control
T/C [2]: 96 % of control
T/C [3]: 99 % of control

O=C(c1ccc([N+](=O)[O-])cc1)c1cc2ccccc2oc1=O
T/C [4]: 91 % of control
T/C [5]: 94 % of control
T/C [6]: 90 % of control

O=[N+]([O-])c1ccc(C=Nc2ccc3c4c(cccc24)-c2ccccc2-3)cc1
T/C [7]: 101 % of control
T/C [8]: 90 % of control
T/C [9]: 108 % of control

CS(=O)(=O)c1nc(N)c(S(N)(=O)=O)c(N)n1
T/C [10]: 108 % of control
T/C [11]: 111 % of control

NC(=O)NN(Cc1cccc(Cl)c1)N=O
T/C [12]: 95 % of control
T/C [13]: 94 % of control
T/C [14]: 98 % of control

NCC(=O)c1ccc(O)c(O)c1
T/C (dose: 25.0 mg/kg/injection, schedule: Q01DX009 (ip), vehicle: saline): 100 % of control
T/C (dose: 25.0 mg/kg/injection, schedule: Q04DX003 (ip), vehicle: saline with Tween-80): 108 % of control
T/C [15]: 113 % of control
T/C [16]: 108 % of control
T/C [17]: 104 % of control and 121 % of control

C=C1C(=O)OC2C1C(OC(=O)/C(C)=C/CO)C/C(C)=C/CCC1(CO)OC21 (configuration not stated)
T/C (dose: 0.5 mg/kg/injection, schedule: Q01DX009 (ip), vehicle: Klucel (hydroxypropylcellulose) (HPC)): 100 % of control
T/C (dose: 1.0 mg/kg/injection, schedule: Q01DX009 (ip), vehicle: Klucel (hydroxypropylcellulose) (HPC)): 91 % of control
T/C (dose: 2.0 mg/kg/injection, schedule: Q01DX009 (ip), vehicle: Klucel (hydroxypropylcellulose) (HPC)): 100 % of control
T/C (dose: 4.0 mg/kg/injection, schedule: Q01DX009 (ip), vehicle: Klucel (hydroxypropylcellulose) (HPC)): 103 % of control and 113 % of control
T/C (dose: 8.0 mg/kg/injection, schedule: Q01DX009 (ip), vehicle: Klucel (hydroxypropylcellulose) (HPC)): 105 % of control
T/C (dose: 16.0 mg/kg/injection, schedule: Q01DX009 (ip), vehicle: Klucel (hydroxypropylcellulose) (HPC)): 118 % of control

COC(=O)CCCCc1ccc(CCCCC(=O)OC)c2ccccc12
T/C (dose: 50.0 mg/kg/injection, schedule: Q01DX009 (ip), vehicle: other): 103 % of control
T/C (dose: 100.0 mg/kg/injection, schedule: Q01DX009 (ip), vehicle: other): 100 % of control
T/C (dose: 200.0 mg/kg/injection, schedule: Q01DX009 (ip), vehicle: other): 97 % of control

COc1ccc(/C=C2\CCOc3ccc(C)cc3C2=O)cc1
T/C [12]: 94 % of control
T/C [13]: 96 % of control
T/C [14]: 102 % of control

CC(=O)N(O)C1CCCCC1
T/C [7]: 101 % of control
T/C [15]: 112 % of control
T/C [8]: 101 % of control
T/C (dose: 100.0 mg/kg/injection, schedule: Q01DX009 (ip), vehicle: saline): 97 % of control
T/C [9]: 103 % of control
T/C (dose: 200.0 mg/kg/injection, schedule: Q01DX009 (ip), vehicle: saline): 100 % of control

COc1ccccc1OCC(O)CNc1ccc(Cl)cc1C(=O)c1ccccc1 (configuration not stated)
T/C [4]: 103 % of control
T/C [5]: 105 % of control
T/C [6]: 94 % of control

C=C1CC2(CCCC3(C)CCC(C(C)C)CC32C)OC1=O (configuration not stated)
T/C (dose: 100.0 mg/kg/injection, schedule: Q01DX001 (ip), vehicle: saline): 101 % of control
T/C (dose: 200.0 mg/kg/injection, schedule: Q01DX001 (ip), vehicle: saline): 106 % of control
T/C (dose: 400.0 mg/kg/injection, schedule: Q01DX001 (ip), vehicle: saline): 110 % of control

Cc1nn(-c2ccccc2)c2c1C(=O)CC(C)O2 (configuration not stated)
T/C (dose: 60.0 mg/kg/injection, schedule: Q01DX005 (ip), vehicle: Klucel (hydroxypropylcellulose) (HPC)): 93 % of control
T/C (dose: 120.0 mg/kg/injection, schedule: Q01DX005 (ip), vehicle: Klucel (hydroxypropylcellulose) (HPC)): 91 % of control

COc1cc2ccc3c4c(OC)c(OC)c(OC)cc4c[n+](C)c3c2cc1OC
T/C (dose: 2.0 mg/kg/injection, schedule: Q01DX009 (ip), vehicle: water): 111 % of control
T/C (dose: 4.0 mg/kg/injection, schedule: Q01DX009 (ip), vehicle: water): 113 % of control
T/C (dose: 8.0 mg/kg/injection, schedule: Q01DX009 (ip), vehicle: water): 110 % of control
T/C (dose: 16.0 mg/kg/injection, schedule: Q01DX009 (ip), vehicle: water): 118 % of control

CN1C(=O)c2ccc3c4ccc5c(=O)n6c7ccccc7nc6c6ccc(c7ccc(c2c37)C1=O)c4c56
T/C [18]: 102 % of control
T/C [19]: 105 % of control
T/C [20]: 97 % of control

COC1=CC(=O)C(CC=C(C)C)=CC1=O
T/C [18]: 100 % of control
T/C [19]: 102 % of control
T/C [20]: 105 % of control

Cc1nc(Nc2c(C)cccc2C)c2c(C)c(Cc3ccccc3)[nH]c2n1
T/C [18]: 89 % of control
T/C [19]: 89 % of control
T/C [20]: 104 % of control

O=C(Cc1nc2ccc([N+](=O)[O-])cc2nc1CC(=O)c1ccccc1)c1ccccc1
T/C [4]: 110 % of control
T/C [5]: 103 % of control
T/C [6]: 100 % of control

O=C(O)CS(=O)(=O)CC(=O)O
T/C [15]: 95 % of control

CC1(C)N=C(N)N=C(N)N1c1ccc(CNC(=O)Nc2ccc(S(=O)(=O)F)cc2)cc1
T/C [1]: 172 % of control
T/C [2]: 181 % of control
T/C [3]: 90 % of control

COC1=C(C)C(=O)c2c(C(C)C)cc(O)c(C=O)c2C1=O
T/C (dose: 3.0 mg/kg/injection, schedule: Q01DX009 (ip), vehicle: Klucel (hydroxypropylcellulose) (HPC)): 100 % of control
T/C (dose: 6.0 mg/kg/injection, schedule: Q01DX009 (ip), vehicle: Klucel (hydroxypropylcellulose) (HPC)): 100 % of control
T/C (dose: 12.0 mg/kg/injection, schedule: Q01DX009 (ip), vehicle: Klucel (hydroxypropylcellulose) (HPC)): 109 % of control
T/C (dose: 24.0 mg/kg/injection, schedule: Q01DX009 (ip), vehicle: Klucel (hydroxypropylcellulose) (HPC)): 109 % of control

O=C(O)c1ccc(Oc2nc3ccccc3s2)cc1
T/C [16]: 91 % of control
T/C [17]: 91 % of control

COC(=O)CN1CC1
T/C (dose: 3.12 mg/kg/injection, schedule: Q01DX009 (ip), vehicle: saline with Tween-80): 100 % of control
T/C (dose: 6.25 mg/kg/injection, schedule: Q01DX009 (ip), vehicle: saline with Tween-80): 95 % of control
T/C (dose: 12.5 mg/kg/injection, schedule: Q01DX009 (ip), vehicle: saline with Tween-80): 94 % of control
T/C (dose: 25.0 mg/kg/injection, schedule: Q01DX009 (ip), vehicle: saline with Tween-80): 95 % of control

CCCOc1ccc(C(N)=S)cc1
T/C (dose: 12.5 mg/kg/injection, schedule: Q01DX009 (ip), vehicle: Klucel (hydroxypropylcellulose) (HPC)): 98 % of control and 103 % of control
T/C (dose: 25.0 mg/kg/injection, schedule: Q01DX009 (ip), vehicle: Klucel (hydroxypropylcellulose) (HPC)): 101 % of control and 105 % of control
T/C [10]: 115 % of control and 120 % of control and 96 % of control
T/C [11]: 86 % of control

C=C1C(=O)C23C(OC(=O)CCCCCCCCCCCCCCC)C1CCC2C12COC3(O)C(O)C1C(C)(C)CCC2O (configuration not stated)
T/C (dose: 3.75 mg/kg/injection, schedule: Q01DX009 (ip), vehicle: saline with Tween-80): 101 % of control
T/C (dose: 7.5 mg/kg/injection, schedule: Q01DX009 (ip), vehicle: saline with Tween-80): 104 % of control
T/C (dose: 15.0 mg/kg/injection, schedule: Q01DX009 (ip), vehicle: saline with Tween-80): 103 % of control
T/C (dose: 30.0 mg/kg/injection, schedule: Q01DX009 (ip), vehicle: saline with Tween-80): 99 % of control

O=C(/C=C/c1ccc(Cl)cc1)NC1C=Nc2ccc([N+](=O)[O-])cc2NC1=O (configuration not stated)
T/C [4]: 105 % of control
T/C [5]: 100 % of control
T/C [6]: 98 % of control

CCCCONc1ccnc(=O)[nH]1
T/C (dose: 37.5 mg/kg/injection, schedule: Q01DX001 (ip), vehicle: saline): 100 % of control
T/C (dose: 75.0 mg/kg/injection, schedule: Q01DX001 (ip), vehicle: saline): 100 % of control
T/C (dose: 150.0 mg/kg/injection, schedule: Q01DX001 (ip), vehicle: saline): 107 % of control

CCc1cccc2c3c([nH]c12)C(CC)(CC(=O)O)OCC3 (configuration not stated)
T/C [10]: 102 % of control
T/C [11]: 110 % of control
T/C (dose: 200.0 mg/kg/injection, schedule: Q01DX009 (ip), vehicle: Klucel (hydroxypropylcellulose) (HPC)): 107 % of control
